From the supplement of paper PMC11451515

Tested on: SEM cells
Assay: cell viability relative to DMSO control; higher = less cytotoxic
Settings: 48 h
Outline: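 Viability was expressed as a per-plate percentage of DMSO wells, with cell-free wells as background. Leukemia cells (NOMO1 or SEM at 500 cells/well, P12-Ichikawa at 1000 cells/well) were adapted for at least four passages in each medium and seeded in 1536-well plates (5 μl). Library compounds in DMSO were pin-dosed over an 11-point threefold series from 47 μM to 0.79 nM, and CellTiter-Glo One luminescence was read after 48 h at 37°C.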

[1] = HPLM + 10% dialyzed FBS, 0.000781 µM
[2] = HPLM + 10% dialyzed FBS, 0.00234 µM
[3] = HPLM + 10% dialyzed FBS, 0.00702 µM
[4] = HPLM + 10% dialyzed FBS, 0.0211 µM
[5] = HPLM + 10% dialyzed FBS, 0.0632 µM
[6] = HPLM + 10% dialyzed FBS, 0.19 µM
[7] = HPLM + 10% dialyzed FBS, 0.569 µM
[8] = HPLM + 10% dialyzed FBS, 1.71 µM
[9] = HPLM + 10% dialyzed FBS, 5.12 µM
[10] = HPLM + 10% dialyzed FBS, 15.4 µM
[11] = HPLM + 10% dialyzed FBS, 46.1 µM
[12] = RPMI 5 mM glucose + 10% FBS, 0.000781 µM
[13] = RPMI 5 mM glucose + 10% FBS, 0.00234 µM
[14] = RPMI 5 mM glucose + 10% FBS, 0.00702 µM
[15] = RPMI 5 mM glucose + 10% FBS, 0.0211 µM
[16] = RPMI 5 mM glucose + 10% FBS, 0.0632 µM
[17] = RPMI 5 mM glucose + 10% FBS, 0.19 µM
[18] = RPMI 5 mM glucose + 10% FBS, 0.569 µM
[19] = RPMI 5 mM glucose + 10% FBS, 1.71 µM
[20] = RPMI 5 mM glucose + 10% FBS, 5.12 µM
[21] = RPMI 5 mM glucose + 10% FBS, 15.4 µM
[22] = RPMI 5 mM glucose + 10% FBS, 46.1 µM
[23] = RPMI 5 mM glucose + 10% dialyzed FBS, 0.000781 µM
[24] = RPMI 5 mM glucose + 10% dialyzed FBS, 0.00234 µM
[25] = RPMI 5 mM glucose + 10% dialyzed FBS, 0.00702 µM
[26] = RPMI 5 mM glucose + 10% dialyzed FBS, 0.0211 µM
[27] = RPMI 5 mM glucose + 10% dialyzed FBS, 0.0632 µM
[28] = RPMI 5 mM glucose + 10% dialyzed FBS, 0.19 µM
[29] = RPMI 5 mM glucose + 10% dialyzed FBS, 0.569 µM
[30] = RPMI 5 mM glucose + 10% dialyzed FBS, 1.71 µM
[31] = RPMI 5 mM glucose + 10% dialyzed FBS, 5.12 µM
[32] = RPMI 5 mM glucose + 10% dialyzed FBS, 15.4 µM
[33] = RPMI 5 mM glucose + 10% dialyzed FBS, 46.1 µM

Compound	cell viability [1]	cell viability [2]	cell viability [3]	cell viability [4]	cell viability [5]	cell viability [6]	cell viability [7]	cell viability [8]	cell viability [9]	cell viability [10]	cell viability [11]	cell viability [12]	cell viability [13]	cell viability [14]	cell viability [15]	cell viability [16]	cell viability [17]	cell viability [18]	cell viability [19]	cell viability [20]	cell viability [21]	cell viability [22]	cell viability [23]	cell viability [24]	cell viability [25]	cell viability [26]	cell viability [27]	cell viability [28]	cell viability [29]	cell viability [30]	cell viability [31]	cell viability [32]	cell viability [33]
CN(C)[C@H]\1[C@@H]2C[C@H]3C(=C(O)\[C@]2(O)C(=O)\C(=C1O)C(N)=O)/C(=O)C4=C(O)C=CC=C4[C@@]3(C)O	92.6%	88.5%	81.5%	101%	92.5%	90.8%	92.7%	86.6%	85.2%	90.1%	78.3%	113%	118%	114%	102%	83.7%	104%	108%	96.8%	93.2%	109%	93%	118%	108%	128%	129%	89.8%	108%	126%	116%	59.4%	116%	100%
CC(C)C[C@@H](C=O)NC(=O)[C@H](CC(C)C)NC(=O)[C@H](CC(C)C)NC(=O)OCc1ccccc1	108%	115%	126%	122%	148%	139%	81.8%	9.69%	9.22%	8.52%	8.11%	111%	131%	124%	143%	124%	127%	10.8%	9.94%	10%	9.17%	8.59%											
C=C[C@H]1CN2CC[C@H]1C[C@H]2[C@H](O)c1ccnc2ccc(OC)cc12	91.2%	99.2%	93.3%	97%	106%	116%	104%	86%	125%	96.8%	74.3%	90.8%	88.7%	84%	89.7%	105%	99.2%	104%	90.7%	102%	94.5%	50.4%	85.2%	98.2%	93.4%	93.8%	92%	96.9%	80%	80.7%	90.9%	102%	70.2%
Cn1c(CNc2ccc(C(=N)N)cc2)nc2cc(C(=O)N(CCC(=O)O)c3ccccn3)ccc21	87.6%	96.3%	95.2%	106%	101%	103%	102%	117%	104%	121%	116%	73.1%	99.2%	98.6%	97.6%	102%	96.6%	99.6%	93.2%	95.6%	110%	103%	65.6%	98%	95.8%	114%	110%	104%	97.7%	122%	120%	118%	119%
Cc1cnc(-c2cc(N3CCN(C(=O)CC[S+](C)(=O)[O-])CC3)ncc2Cl)c(C)c1	103%	102%	118%	119%	128%	122%	124%	130%	127%	125%	141%	115%	151%	119%	116%	118%	136%	135%	140%	140%	142%	136%	112%	115%	107%	133%	125%	132%	124%	141%	155%	143%	139%
COc1ncc(-c2ccc3nccc(-c4ccnnc4)c3c2)cc1N[S+](=O)([O-])c1ccc(F)cc1F	81%	71.8%	60.5%	66.9%	59.4%	50.4%	43.9%	30%	21.1%	6.8%	6.02%	79%	65%	74.8%	61.7%	51.9%	46.7%	37%	19.2%	14.2%	6.8%	5.84%	98.1%	79.9%	67.8%	68.7%	64.6%	54.4%	51.9%	26.5%	16.7%	6.57%	5.89%
O=C(Nc1cc2cc[nH]c2cn1)c1ccccc1	87.7%	95.6%	90.4%	104%	85.6%	102%	109%	104%	18.5%	4.59%	2.37%	75.6%	89.4%	92.4%	90.8%	92.8%	106%	104%	90%	4.38%	2.43%	1%	85.4%	95.1%	98.7%	98.8%	96.8%	102%	112%	117%	6.2%	5.18%	2.59%
COc1ccc(-c2nc(N3CCOCC3)c3sc(CN(C)c4ncc(C(=O)NO)cn4)cc3n2)cn1	88.4%	101%	67.8%	34.5%	6.86%	6.43%	6.72%	6.14%	6.01%	5.89%	4.98%	90.5%	83.6%	49.9%	20.5%	6.31%	6.48%	5.87%	5.83%	6.2%	5.41%	3.98%	97%	108%	78.3%	37.7%	7.5%	7.3%	6.64%	6.58%	5.98%	6.08%	4.38%
CN1CCCN=C1/C=C/c1cccs1.O=C(O)c1cc2ccccc2c(Cc2c(O)c(C(=O)O)cc3ccccc23)c1O	113%	126%	114%	128%	120%	135%	118%	119%	113%	115%	91.9%	113%	118%	128%	119%	105%	128%	129%	105%	105%	92.9%	15%											
C[N]1C=C(C2=C1C=CC=C2)\C3=C(\C(=O)NC3=O)C4=C5CC(CN)CC[N]5C6=C4C=CC=C6 (centres undefined)	88.4%	97.6%	92.2%	107%	75.4%	102%	108%	99.5%	86.3%	19.3%	3.63%	100%	108%	98.1%	107%	66.6%	111%	95%	86%	79.1%	31.8%	3.05%	89.9%	108%	105%	107%	86.1%	95.8%	111%	107%	88.4%	38.6%	7.7%
S=P(N1CC1)(N1CC1)N1CC1	102%	106%	110%	96.7%	104%	107%	103%	98.5%	85.1%	93.3%	39%												99.6%	108%	106%	105%	105%	107%	93.6%	90.4%	95.1%	78.5%	41.5%
CCC[C@H]1C[C@H](C(=O)N[C@@H]([C@@H]2O[C@@H](SC)[C@@H](O)[C@@H](O)[C@H]2O)[C@H](C)Cl)N(C)C1	79%	90.9%	91.2%	95.1%	100%	94.1%	130%	106%	109%	98.4%	99.9%	101%	114%	117%	101%	132%	112%	112%	117%	110%	126%	124%	66.4%	84.7%	94%	87.3%	97.7%	89.6%	110%	94.3%	97.7%	110%	101%
CN(C)C1=CC=C(C=C1)C(C2=CC=C(C=C2)N(C)C)=C/3\C=C/C(/C=C3)=[N+](C)C	101%	98.3%	113%	98.1%	116%	9.97%	4.77%	4.38%	4.51%	1.71%	1.2%												104%	113%	100%	85.9%	76.1%	8.49%	4.28%	2.86%	4.04%	1.22%	0.974%
OC1=CC2=C(C(=C1)O)C(=O)\C=C(/O2)C3=CC=CC=C3	89.7%	92.5%	93%	107%	94.5%	112%	94.4%	115%	85%	61.9%	8.24%	88.2%	103%	106%	94.2%	105%	101%	92%	104%	77.2%	35.8%	4.9%	85.8%	96.6%	95.3%	91.5%	99.9%	97.7%	97.3%	111%	94.5%	59.6%	11.9%
CCC(C)(C)c1ccc(CC(C)CN2C[C@@H](C)O[C@@H](C)C2)cc1 (some centres undefined)	69%	62.1%	88.1%	87.3%	72.2%	64.7%	74.7%	75.5%	84.1%	67.8%	74.3%	80%	67.6%	87.1%	79.9%	89.4%	36.3%	91.8%	86.6%	84.5%	71.9%	76.8%	71%	67.1%	94.5%	91.7%	83.4%	78.6%	114%	82.9%	89.7%	67.9%	78%
C\C1=C(\C=C(\C#N)C(=O)N1)C2=CC=NC=C2	82.7%	86.9%	91.6%	104%	101%	113%	99.3%	111%	96.7%	126%	113%	109%	92.5%	113%	109%	121%	112%	108%	112%	84.9%	122%	97.8%	115%	101%	111%	130%	118%	117%	96.4%	109%	105%	109%	114%
